Experimental data from patent publication US5462941A, “3,6-disubstituted pyradazine derivatives” (Mitsubishi Chemical Corporation, priority 1991, dated 1995).

Key:
[1] = tested on: Platelet Agglutination of Rats; assay: Inhibitory effect on collagen-induced platelet agglutination of rats in vitro (platelet rich plasma); assay type: cell-based; details: rat platelet rich plasma, read-out: in vitro Inhibitory ratio (platelet agglutination); for inhibition at 0.3 µM: 3 × 10^-7 M; for inhibition at 0.1 µM: 10^-7 M; for inhibition at 1 µM: 10^-6 M
Experimental: Inhibitory Effects of 3,6-Disubstituted Pyridazine Derivatives on Platelet Agglutination of Rats […]
Arterial blood of a rat was centrifuged to obtain platelet rich plasma. […] of a medicinal solution was added to 250 μl of the platelet rich plasma, and the mixture was incubated for 2 minutes. Thereafter, 3 μg of collagen (produced by Hormon-Chemie) was added to the mixture as a platelet agglutination inducer, and changes in the platelet agglutination were observed and recorded by a 2-channel platelet agglutination degree measuring instrument (Model DP247E, produced by Sienco) for 10 minutes.
(§1) The platelet agglutination inhibitory ratio was calculated from the following formula:
Inhibitory ratio=(Tc-Ts)/Tc×100
Tc: Agglutination degree when only a solvent was added
Ts: Agglutination degree when a medicinal solution was added

[2] = tested on: Myocardial Infarction of a Rat; assay: Effect on myocardial infarction of a rat induced by ligation of the left coronary artery; assay type: in vivo, rat (male SD); details: oral, 60 minutes before ligation
Experimental: Effects of 3,6-Disubstituted Pyridazine Derivatives on the Myocardial Infarction of a Rat Induced by the Ligation of the Left Coronary Artery
A rat group consisting of 8 male SD rats each weighing 200 to 250 g was tested. Myocardial infarction was produced in accordance with a method of Selye et al. That is, each rat was fixed on an operating boar on its back, and an about 1.5 cm incision had been made through the skin along the left sternal border under weak etherization. The pericardium was broken to exteriorize the heart, and the left coronary artery was ligated at a position of 1 to 2 mm apart from the origin thereof with black blade 4-O silk suture (produced by Hama Ika Kogyo). Thereafter, the heart was restored to its original position and the chest was sutured. The air in the throacic cavity was discharged by pressing both side breast portions. After the resumption of respiration, the ST elevation in the standard limb lead II by an electrocardiograph (Model ECG-6601, produced by Nihon Koden Co.,). 24 hours after the ligation, blood was collected from the aortas at the abdomen. A fatal amount of blood was then drawn from each rat. The heart was taken out, and a tissue slice (about 2 mm thick) having an annular cross section was cut from the central portion of the heart. The tissue slice was incubated in 20 ml of 1% TTC (tryphenyl tetrazolium chloride, produced by Wako Pure Chemical Industries Limited) dissolved in 0.09M of phosphoric acid buffer (pH 8.6) at 37° C. for 20 minutes while shielding light. The tissue slice was photographed by a stereoscopic microscope to produce a color slide. The image of the tissue slice was projected on a wall surface from the color slide. The cut surface, the infarcted portion (portion not dyed with TTC) and the non-infarcted portion (portion dyed with TTC) were traced on a sheet, and the area of the infarcted portion in the whole cross section was calculated. The medicine was suspended in an aqueous 1% tragacanth solution and orally administered to each rat 60 minutes before the ligation of the left coronary artery.
The myocardial infarction inhibitory ratio was calculated from the following formula: [formula] A: Infarction degree in the group (controlled group) to which only a solution of 1% tragacanth was administered
B: Infarction degree in the group to which the tragacanth solution containing a medicine was administered

[3] = tested on: Platelet Agglutination of Rats; assay: Inhibitory effect on collagen-induced platelet agglutination of rats after oral administration (ex vivo); assay type: in vivo, rat (male Wistar-ST); details: 1 mg/kg p.o., blood collected one hour after; collagen 7 to 10 μg/ml; rat
Experimental: Inhibitory Effects of 3,6-Disubstituted Pyridazine Derivatives on Platelet Agglutination of Rats In Vivo (Oral Administration)
A rat group consisting of 8 male Wistar-ST rats each weighing about 250 g was tested. Each compound was suspended in aqueous 1% tragacanth solution. The thus-prepared suspension was orally administered to each rat at a dose of 4 ml/kg. One hour after, blood was collected from each carotid artery through a cannula into a plastic test tube containing 3.8% sodium citrate in amount corresponding to 1/10 of the volume of the test tube) and the mixture was stirred. Thereafter, the mixture was centrifuged at 200×g rpm for 15 minutes, and the supernatant liquid was taken as platelet rich plasma (PRP). The residue was further centrifuged at 2000×g rpm for 15 minutes, and the supernatant liquid was collected as platelet poor plasma (PPP) and used for measurement of the platelet agglutinating ability. The platelet agglutinating ability was measured by a 2-channel platelet agglutination degree measuring instrument (Model DP247E, produced by Sienco), and recorded by a 2-pen recorder.
Collagen (produced by Hormon-Chemie) having a concentration of 7 to 10 μg/ml was used as a platelet agglutination inducer.
as §1
Inhibitory ratio=(A-B)/A×100 (%)
A: Agglutination degree in the group (controlled group) to which only a solution of 1% tragacanth was administered
B: Agglutination degree in the group to which the tragacanth solution containing a compound was administered

SMILES | inhibition at 0.3 µM [1] [%] | inhibition at 0.1 µM [1] [%] | inhibition at 1 µM [1] [%] | other results
C[C@@H](Nc1nnc(-c2cccs2)c2sccc12)c1ccccc1 [Example 69, (R)-4-(1-phenylethylamino)-7-(2-thienyl) thieno[2 3-d]pyridazine] | 95.2 | 50.8 |  | 
C[C@@H](Nc1nnc(-c2ccco2)c2ccccc12)C1CCCCC1 [Example 45, (R)-1-(α-cyclohexylethylamino)-4-(2-furyl)phthalazine] |  | 98.6 |  | 
CCC(Nc1nnc(C2CCCCC2)c2ccccc12)c1ccccc1 (centres unmarked) [Example 2] | 96 | 56 |  | 
CCC(Nc1nnc(-c2ccccc2)c2ccsc12)c1ccccc1 (centres unmarked) [Example 84] | 24.5 |  | 61.6 | 
Cc1cccc(C(C)Nc2nnc(-c3ccccc3)c3ccsc23)c1 (centres unmarked) [Example 87] |  |  | 18 | 
C[C@@H](Nc1nnc(-c2ccccc2)c2ccccc12)C1CCCCC1 [Example 60, (R)-1-(1-cyclohexylethylamino)-4-phenylphthalazine] |  | 94.3 |  | percentage of inhibition (myocardial infarction) ([2]; 1 mg/kg): 68.5 percentage; percentage of inhibition (myocardial infarction) ([2]; 3 mg/kg): 82.2 percentage; ex vivo Inhibitory ratio (platelet agglutination) [3]: 51.3%
C[C@@H](Nc1nnc(-c2ccccc2)c2ccsc12)C1CCCCC1 [Example 90] | 94.4 | 32.7 |  | ex vivo Inhibitory ratio (platelet agglutination) [3]: 60.6%
COc1ccccc1C(C)Nc1nnc(-c2ccccc2)c2sccc12 (centres unmarked) [Example 74] | 93.5 | 73.4 |  | 
CC(Nc1nnc(-c2ccccc2)c2ccsc12)c1ccccc1Cl (centres unmarked) [Example 86] | 78.2 |  | 90.2 | 
Clc1ccccc1CN1CCc2sccc2C1 [Ticlopidine, reference compound] |  |  |  | percentage of inhibition (myocardial infarction) ([2]; 30 mg/kg): 10.1 percentage
c1ccc2c(C3CCCCC3)nnc(NC3CCCCC3)c2c1 [Example 3] | 18.4 |  | 100 | 
c1ccc(-c2nnc(NC3CCCCC3)c3ccsc23)cc1 [Example 80] |  | 100 |  | 
C[C@H](Nc1nnc(-c2ccccc2)c2ccsc12)c1ccccc1 [Example 83] | 94.3 |  |  | 
c1coc(-c2nnc(-n3ccnc3)c3ccccc23)c1 [Example 46, 1-(1-imidazolyl)-4-(2-furyl)phthalazine] | 40.6 |  | 66.5 | 
Cc1csc(-c2nnc(N[C@H](C)c3ccccc3)c3ccccc23)c1 [Example 42, (R)-1-(α-phenylethylamino)-4-(4-methyl-2-thienyl)phthalazine] |  | 96.3 |  | 
C[C@@H](Nc1nnc(-c2ccccc2)c2sccc12)C1CCCCC1 [Example 75] |  | 94.5 |  | ex vivo Inhibitory ratio (platelet agglutination) [3]: 50.2%
Cc1ccccc1-c1nnc(N[C@H](C)c2ccccc2)c2ccsc12 [Example 79] | 6.6 |  | 94.3 | 
C[C@@H](Nc1nnc(-c2ccccc2)c2sccc12)c1ccccc1 [Example 70] |  | 95.2 |  | 
Cc1cccc(C(C)Nc2nnc(-c3ccccc3)c3sccc23)c1 (centres unmarked) [Example 73] | 95.6 | 42.8 |  | 
C[C@@H](Nc1nnc(-c2ccccc2)c2occc12)C1CCCCC1 [Example 95, (R)-4-(1-cyclohexylethylamino)-7-phenyl-furano[2,3-d]pyridazine] | 100 | 94.4 |  | ex vivo Inhibitory ratio (platelet agglutination) [3]: 63.1%
CC(=O)Oc1ccccc1C(=O)O [Aspirin, reference compound] |  |  |  | percentage of inhibition (myocardial infarction) ([2]; 100 mg/kg): 10.7 percentage
CCCCC(Nc1nnc(-c2ccccc2)c2ccsc12)c1ccccc1 (centres unmarked) [Example 85] |  |  | 40.7 | 
C[C@@H](Nc1nnc(-c2ccsc2)c2ccccc12)c1ccccc1 [Example 39, (R)-1-(α-phenylethylamino)-4-(3-thienyl) phthalazine] |  | 94.9 |  | 
C[C@@H](Nc1nnc(-c2ccccc2)c2ccsc12)c1ccccc1 [Example 82] |  | 93.3 |  | ex vivo Inhibitory ratio (platelet agglutination) [3]: 37.9%
CC1(C)CC(Nc2nnc(C3CCCCC3)c3ccccc23)CC(C)(C)C1 [Example 5] |  |  | 51.8 | 
COc1ccccc1C(C)Nc1nnc(-c2ccccc2)c2ccsc12 (centres unmarked) [Example 89] | 49.5 |  | 95.4 | 
C[C@H](Nc1nnc(-c2ccccc2)c2ccccc12)C1CCCCC1 [Example 61] | 94.4 | 30.2 |  | 
C[C@@H](Nc1nnc(C2CCCCC2)c2ccccc12)c1ccccc1 [Example 1, (R)-1-(α-phenylethylamino)-4-cyclohexylphthalazine] | 97.1 | 89.2 |  | 
CCC(Nc1nnc(-c2ccccc2)c2sccc12)c1ccccc1 (centres unmarked) [Example 71] | 98.6 | 30.7 |  | 
CC(Nc1nnc(-c2ccccc2)c2sccc12)c1ccccc1Cl (centres unmarked) [Example 72] | 95.3 | 5.1 |  | 
